In ChEMBL document CHEMBL1136853, “Synthesis and SAR of vinca alkaloid analogues” (Bioorg Med Chem Lett, 2009):

How the values were obtained:
MCF7 = assay: Cytotoxicity against human MCF7 cells; format: functional
HeLa = assay: Cytotoxicity against human HeLa cells; format: functional

Compound | GI50 (MCF7) | GI50 (HeLa)
CC[C@]1(O)C[C@H]2CN(CCc3c([nH]c4ccc(SC)cc34)[C@@](C(=O)OC)(c3cc4c(cc3OC)N(C=O)[C@H]3[C@@](O)(C(=O)OC)[C@H](OC(C)=O)[C@]5(CC)CC=CN6CC[C@]43[C@@H]65)C2)C1 | 3 nM | 3 nM
CC[C@]1(O)C[C@H]2CN(CCc3c([nH]c4ccc(C)cc34)[C@@](C(=O)OC)(c3cc4c(cc3OC)N(C=O)[C@H]3[C@@](O)(C(=O)OC)[C@H](OC(C)=O)[C@]5(CC)CC=CN6CC[C@]43[C@@H]65)C2)C1 | 3 nM | 1 nM
CC[C@]1(O)C[C@H]2CN(CCc3c([nH]c4ccc(-c5ccccc5)cc34)[C@@](C(=O)OC)(c3cc4c(cc3OC)N(C=O)[C@H]3[C@@](O)(C(=O)OC)[C@H](OC(C)=O)[C@]5(CC)CC=CN6CC[C@]43[C@@H]65)C2)C1 | 35 nM | 50 nM
C#Cc1ccc2[nH]c3c(c2c1)CN1CC(CC)=C[C@@H](C1)C[C@]3(C(=O)OC)c1cc2c(cc1OC)N(C)[C@H]1[C@@](O)(C(=O)OC)[C@H](OC(C)=O)[C@]3(CC)CC=CN4CC[C@]21[C@@H]43 | 5 nM | 0.4 nM
CCSc1ccc2[nH]c3c(c2c1)CN1CC(CC)=C[C@@H](C1)C[C@]3(C(=O)OC)c1cc2c(cc1OC)N(C)[C@H]1[C@@](O)(C(=O)OC)[C@H](OC(C)=O)[C@]3(CC)CC=CN4CC[C@]21[C@@H]43 | 20 nM | 5 nM
CCC1=C[C@H]2CN(C1)Cc1c([nH]c3ccc(C#N)cc13)[C@@](C(=O)OC)(c1cc3c(cc1OC)N(C)[C@H]1[C@@](O)(C(=O)OC)[C@H](OC(C)=O)[C@]4(CC)CC=CN5CC[C@]31[C@@H]54)C2 | 6 nM | 1 nM
CCC1=C[C@H]2CN(C1)Cc1c([nH]c3ccc(C(=O)OC)cc13)[C@@](C(=O)OC)(c1cc3c(cc1OC)N(C)[C@H]1[C@@](O)(C(=O)OC)[C@H](OC(C)=O)[C@]4(CC)CC=CN5CC[C@]31[C@@H]54)C2 | 50 nM | 30 nM
CC[C@]1(O)C[C@H]2CN(CCc3c([nH]c4ccc(C#N)cc34)[C@@](C(=O)OC)(c3cc4c(cc3OC)N(C=O)[C@H]3[C@@](O)(C(=O)OC)[C@H](OC(C)=O)[C@]5(CC)CC=CN6CC[C@]43[C@@H]65)C2)C1 | 4 nM | 10 nM
CC[C@]1(O)C[C@H]2CN(CCc3c([nH]c4ccc(N5CCCCC5)cc34)[C@@](C(=O)OC)(c3cc4c(cc3OC)N(C)[C@H]3[C@@](O)(C(=O)OC)[C@H](OC(C)=O)[C@]5(CC)CC=CN6CC[C@]43[C@@H]65)C2)C1 | 30 nM | 20 nM
CCC1=C[C@H]2CN(C1)Cc1c([nH]c3ccc(-c4cccc(F)c4)cc13)[C@@](C(=O)OC)(c1cc3c(cc1OC)N(C)[C@H]1[C@@](O)(C(=O)OC)[C@H](OC(C)=O)[C@]4(CC)CC=CN5CC[C@]31[C@@H]54)C2 | > 1000 nM | > 1000 nM
CCC1=C[C@H]2CN(C1)Cc1c([nH]c3ccc(C(C)=O)cc13)[C@@](C(=O)OC)(c1cc3c(cc1OC)N(C)[C@H]1[C@@](O)(C(=O)OC)[C@H](OC(C)=O)[C@]4(CC)CC=CN5CC[C@]31[C@@H]54)C2 | 20 nM | 4 nM
CCC1=C[C@H]2CN(C1)Cc1c([nH]c3ccc(C(=O)O)cc13)[C@@](C(=O)OC)(c1cc3c(cc1OC)N(C)[C@H]1[C@@](O)(C(=O)OC)[C@H](OC(C)=O)[C@]4(CC)CC=CN5CC[C@]31[C@@H]54)C2 | > 1000 nM | > 1000 nM
CCc1ccc2[nH]c3c(c2c1)CCN1C[C@H](C[C@@](O)(CC)C1)C[C@]3(C(=O)OC)c1cc2c(cc1OC)N(C=O)[C@H]1[C@@](O)(C(=O)OC)[C@H](OC(C)=O)[C@]3(CC)CC=CN4CC[C@]21[C@@H]43 | 10 nM | 5 nM
CCC1=C[C@H]2CN(C1)Cc1c([nH]c3ccc(-c4ccccc4)cc13)[C@@](C(=O)OC)(c1cc3c(cc1OC)N(C)[C@H]1[C@@](O)(C(=O)OC)[C@H](OC(C)=O)[C@]4(CC)CC=CN5CC[C@]31[C@@H]54)C2 | 300 nM | 70 nM
